Test results from ChEMBL document CHEMBL4411321, “Discovery of Potent, Selective, and Orally Bioavailable Estrogen-Related Receptor-γ Inverse Agonists To Restore the Sodium Iodide Symporter Function in Anaplastic Thyroid Cancer” (J Med Chem, 2019).

Key:
CYP1A2 = molecular target: T1, CYP1A2 (Homo sapiens, UniProt P05177); assay: Inhibition of CYP1A2 in human liver microsomes assessed as reduction in phenacetin O-deethylase activity at 10 uM preincubated for 5 mins followed by NADPH addition and measured after 15 mins by LC-MS/MS analysis relative to control; type: ADME; conditions: probe phenacetin (O-deethylation)
T1 sequence (P05177 whole entry): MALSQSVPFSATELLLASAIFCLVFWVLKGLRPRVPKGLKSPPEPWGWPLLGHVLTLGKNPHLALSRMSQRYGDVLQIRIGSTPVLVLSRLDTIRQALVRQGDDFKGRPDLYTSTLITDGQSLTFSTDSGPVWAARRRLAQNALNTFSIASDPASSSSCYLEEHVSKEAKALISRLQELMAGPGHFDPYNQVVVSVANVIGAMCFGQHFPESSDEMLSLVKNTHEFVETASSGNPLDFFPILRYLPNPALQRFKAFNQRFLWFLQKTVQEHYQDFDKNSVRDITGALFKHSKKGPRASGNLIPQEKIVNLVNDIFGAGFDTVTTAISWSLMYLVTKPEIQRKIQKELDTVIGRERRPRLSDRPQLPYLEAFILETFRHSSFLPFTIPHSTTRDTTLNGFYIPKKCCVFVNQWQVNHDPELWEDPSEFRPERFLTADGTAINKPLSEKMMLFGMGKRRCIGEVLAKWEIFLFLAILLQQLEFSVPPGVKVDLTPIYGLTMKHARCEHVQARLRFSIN

CYP2C9 = CYP2C9 (Homo sapiens, UniProt P11712); assay: Inhibition of CYP2C9 in human liver microsomes assessed as reduction in tolbutamide 4-hydroxylase activity at 10 uM preincubated for 5 mins followed by NADPH addition and measured after 15 mins by LC-MS/MS analysis relative to control; type: ADME; conditions: probe tolbutamide (4-hydroxylation)
Chain of CYP2C9 (P11712 whole entry): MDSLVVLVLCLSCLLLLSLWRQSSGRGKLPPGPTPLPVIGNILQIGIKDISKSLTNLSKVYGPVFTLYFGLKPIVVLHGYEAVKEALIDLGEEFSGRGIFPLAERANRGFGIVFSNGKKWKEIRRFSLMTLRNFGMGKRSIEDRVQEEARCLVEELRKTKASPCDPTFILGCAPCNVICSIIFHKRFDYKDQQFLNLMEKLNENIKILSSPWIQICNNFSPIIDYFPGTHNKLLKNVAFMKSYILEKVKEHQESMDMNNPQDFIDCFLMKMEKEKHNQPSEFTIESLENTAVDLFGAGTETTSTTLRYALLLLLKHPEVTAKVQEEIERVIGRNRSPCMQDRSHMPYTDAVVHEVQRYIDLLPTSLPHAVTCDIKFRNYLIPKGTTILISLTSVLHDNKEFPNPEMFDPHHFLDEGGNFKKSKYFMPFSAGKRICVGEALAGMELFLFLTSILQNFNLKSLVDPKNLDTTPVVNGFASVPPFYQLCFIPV

CYP2C19 = CYP2C19 (Homo sapiens, UniProt P33261); assay: Inhibition of CYP2C19 in human liver microsomes assessed as reduction in S-mephenytoin 4-hydroxylase activity at 10 uM preincubated for 5 mins followed by NADPH addition and measured after 15 mins by LC-MS/MS analysis relative to control; type: ADME; conditions: probe S-mephenytoin (4-hydroxylation)
Chain of CYP2C19 (P33261 whole entry): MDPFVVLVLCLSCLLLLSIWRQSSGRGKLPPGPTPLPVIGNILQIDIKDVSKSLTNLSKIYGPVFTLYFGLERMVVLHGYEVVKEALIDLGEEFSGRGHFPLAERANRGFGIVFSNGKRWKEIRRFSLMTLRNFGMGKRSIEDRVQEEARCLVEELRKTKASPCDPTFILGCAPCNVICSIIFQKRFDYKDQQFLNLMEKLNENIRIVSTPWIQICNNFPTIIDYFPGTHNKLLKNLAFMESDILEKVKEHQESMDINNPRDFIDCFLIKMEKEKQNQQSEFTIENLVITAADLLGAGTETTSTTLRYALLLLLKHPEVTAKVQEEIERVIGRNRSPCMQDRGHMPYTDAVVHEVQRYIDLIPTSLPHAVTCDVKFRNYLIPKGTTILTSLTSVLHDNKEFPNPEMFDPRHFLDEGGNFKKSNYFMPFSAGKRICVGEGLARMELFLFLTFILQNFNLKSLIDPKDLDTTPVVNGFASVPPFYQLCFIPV

CYP2D6 = CYP2D6 (Homo sapiens, UniProt P10635); assay: Inhibition of CYP2D6 in human liver microsomes assessed as reduction in dextromethorphan O-demethylase activity at 10 uM preincubated for 5 mins followed by NADPH addition and measured after 15 mins by LC-MS/MS analysis relative to control; type: ADME; conditions: probe dextromethorphan (O-demethylation)
Chain of CYP2D6 (P10635 whole entry): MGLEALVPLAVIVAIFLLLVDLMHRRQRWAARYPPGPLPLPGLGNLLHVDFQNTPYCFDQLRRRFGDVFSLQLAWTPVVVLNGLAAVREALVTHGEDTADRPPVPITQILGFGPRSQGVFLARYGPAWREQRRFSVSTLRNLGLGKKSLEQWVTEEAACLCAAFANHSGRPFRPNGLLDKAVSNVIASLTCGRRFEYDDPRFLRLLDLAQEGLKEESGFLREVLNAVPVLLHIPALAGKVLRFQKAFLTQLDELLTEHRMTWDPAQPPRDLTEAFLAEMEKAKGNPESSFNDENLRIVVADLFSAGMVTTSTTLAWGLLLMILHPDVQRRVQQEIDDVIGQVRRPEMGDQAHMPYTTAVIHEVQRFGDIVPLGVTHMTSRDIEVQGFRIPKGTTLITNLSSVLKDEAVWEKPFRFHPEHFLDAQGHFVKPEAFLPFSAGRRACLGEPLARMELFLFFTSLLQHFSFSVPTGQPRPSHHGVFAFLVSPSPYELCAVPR

CYP3A4 = CYP3A4 (Homo sapiens, UniProt P08684); assay: Inhibition of CYP3A4 in human liver microsomes assessed as reduction in midazolam 1-hydroxylase activity at 10 uM preincubated for 5 mins followed by NADPH addition and measured after 15 mins by LC-MS/MS analysis relative to control; type: ADME; conditions: probe midazolam (1-hydroxylation)
Chain of CYP3A4 (P08684 whole entry): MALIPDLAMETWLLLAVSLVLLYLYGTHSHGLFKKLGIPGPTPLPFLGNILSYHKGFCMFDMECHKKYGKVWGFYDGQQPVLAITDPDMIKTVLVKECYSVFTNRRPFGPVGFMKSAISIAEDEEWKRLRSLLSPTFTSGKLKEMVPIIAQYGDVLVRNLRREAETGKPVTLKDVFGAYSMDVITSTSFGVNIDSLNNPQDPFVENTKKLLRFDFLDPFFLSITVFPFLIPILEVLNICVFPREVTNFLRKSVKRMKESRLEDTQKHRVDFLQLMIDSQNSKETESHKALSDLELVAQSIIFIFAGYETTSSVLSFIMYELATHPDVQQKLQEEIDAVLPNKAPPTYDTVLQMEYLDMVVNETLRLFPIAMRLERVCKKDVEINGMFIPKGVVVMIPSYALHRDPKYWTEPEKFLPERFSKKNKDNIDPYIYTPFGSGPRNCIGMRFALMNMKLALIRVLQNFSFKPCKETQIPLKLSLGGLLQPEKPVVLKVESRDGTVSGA

[1] = Metabolic stability in human liver microsomes assessed as compound remaining at 1 uM after 30 mins in presence of NADPH regeneration system by LC-MS/MS analysis; type: ADME, Microsome; conditions: read-out: Stability
[2] = Metabolic stability in dog liver microsomes assessed as compound remaining at 1 uM after 30 mins in presence of NADPH regeneration system by LC-MS/MS analysis; type: ADME, Canis lupus familiaris, Microsome; conditions: read-out: Stability
[3] = Metabolic stability in rat liver microsomes assessed as compound remaining at 1 uM after 30 mins in presence of NADPH regeneration system by LC-MS/MS analysis; type: ADME, Microsome; conditions: read-out: Stability
[4] = Metabolic stability in mouse liver microsomes assessed as compound remaining at 1 uM after 30 mins in presence of NADPH regeneration system by LC-MS/MS analysis; type: ADME, Microsome; conditions: read-out: Stability
[5] = Effective permeability of the compound at 10 uM after 5 hrs by PAMPA; type: ADME; conditions: read-out: Peff
[6] = molecular target: T2, Steroid hormone receptor ERR1 (Homo sapiens, UniProt P11474)
T2 sequence (P11474 whole entry): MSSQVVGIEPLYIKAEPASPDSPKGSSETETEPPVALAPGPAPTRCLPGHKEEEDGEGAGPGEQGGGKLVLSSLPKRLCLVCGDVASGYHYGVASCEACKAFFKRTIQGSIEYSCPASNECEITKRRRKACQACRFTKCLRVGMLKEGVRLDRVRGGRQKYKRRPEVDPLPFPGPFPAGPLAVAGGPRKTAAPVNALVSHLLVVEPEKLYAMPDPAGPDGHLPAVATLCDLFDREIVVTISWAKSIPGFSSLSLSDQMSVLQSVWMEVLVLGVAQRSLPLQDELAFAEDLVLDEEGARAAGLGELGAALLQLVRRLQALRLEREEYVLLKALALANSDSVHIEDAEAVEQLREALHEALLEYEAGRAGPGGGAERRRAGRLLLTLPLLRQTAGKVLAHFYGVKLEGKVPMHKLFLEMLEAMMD

[7] = molecular target: Voltage-gated inwardly rectifying potassium channel KCNH2 (Homo sapiens, UniProt Q12809)
Chain of Voltage-gated inwardly rectifying potassium channel KCNH2 (Q12809 whole entry): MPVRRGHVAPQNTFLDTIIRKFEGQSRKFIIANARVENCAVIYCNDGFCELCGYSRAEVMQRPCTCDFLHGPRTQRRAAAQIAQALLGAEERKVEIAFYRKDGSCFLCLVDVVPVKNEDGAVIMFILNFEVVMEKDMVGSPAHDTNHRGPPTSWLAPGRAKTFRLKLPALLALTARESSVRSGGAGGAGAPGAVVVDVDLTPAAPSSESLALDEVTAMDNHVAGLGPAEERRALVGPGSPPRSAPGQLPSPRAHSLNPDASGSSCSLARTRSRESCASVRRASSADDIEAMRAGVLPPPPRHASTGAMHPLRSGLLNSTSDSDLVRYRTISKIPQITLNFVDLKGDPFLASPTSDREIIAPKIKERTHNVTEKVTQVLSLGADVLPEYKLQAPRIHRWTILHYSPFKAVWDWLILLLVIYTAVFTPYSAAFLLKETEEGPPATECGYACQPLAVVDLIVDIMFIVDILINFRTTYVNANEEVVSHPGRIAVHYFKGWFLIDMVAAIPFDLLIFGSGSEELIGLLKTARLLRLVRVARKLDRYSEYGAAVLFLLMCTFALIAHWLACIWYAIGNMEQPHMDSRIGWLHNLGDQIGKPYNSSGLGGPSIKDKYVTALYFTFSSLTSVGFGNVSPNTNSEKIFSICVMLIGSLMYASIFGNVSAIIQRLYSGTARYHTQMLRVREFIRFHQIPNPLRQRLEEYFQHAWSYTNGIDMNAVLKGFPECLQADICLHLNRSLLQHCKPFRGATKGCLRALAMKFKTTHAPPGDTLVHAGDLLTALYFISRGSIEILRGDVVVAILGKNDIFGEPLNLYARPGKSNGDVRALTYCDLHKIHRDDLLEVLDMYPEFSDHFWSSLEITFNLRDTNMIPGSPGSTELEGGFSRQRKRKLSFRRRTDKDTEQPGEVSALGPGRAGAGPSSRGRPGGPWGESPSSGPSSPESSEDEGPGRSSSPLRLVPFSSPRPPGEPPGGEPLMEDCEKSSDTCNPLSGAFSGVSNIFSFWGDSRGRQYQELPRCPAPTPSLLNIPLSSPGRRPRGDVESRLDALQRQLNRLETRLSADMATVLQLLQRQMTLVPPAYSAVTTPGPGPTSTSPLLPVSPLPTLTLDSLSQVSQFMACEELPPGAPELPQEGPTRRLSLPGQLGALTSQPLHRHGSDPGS
Description: Inhibition of human ERG after 4 hrs by fluorescence polarization assay

[8] = AUC in Sprague-Dawley rat at 9 to 10 mg/kg, po via gavage by LC-MS/MS analysis; type: ADME, organism-based; conditions: in vivo
[9] = Oral bioavailability in Sprague-Dawley rat at 9 to 10 mg/kg via gavage by LC-MS/MS analysis; type: ADME, organism-based; conditions: in vivo
in vivo [10] = conditions: Sprague-Dawley, rat, plasma, iv, 1 mg/kg
in vivo [11] = conditions: Sprague-Dawley, rat, iv, 1 mg/kg
Description: Volume of distribution at steady state in Sprague-Dawley rat at 1 mg/kg, iv by LC-MS/MS analysis

[12] = AUC (0 to infinity) in Sprague-Dawley rat at 1 mg/kg, iv by LC-MS/MS analysis; type: ADME, organism-based; parameters: dose 1 mg/kg, time infinity, route intravenous; conditions: in vivo
[13] = AUC (0 to infinity) in Sprague-Dawley rat at 9 to 10 mg/kg, po via gavage by LC-MS/MS analysis; type: ADME, organism-based; conditions: in vivo
[14] = Cmax in Sprague-Dawley rat at 9 to 10 mg/kg, po via gavage by LC-MS/MS analysis; type: ADME, organism-based; conditions: in vivo
[15] = Tmax in Sprague-Dawley rat at 9 to 10 mg/kg, po via gavage by LC-MS/MS analysis; type: ADME, organism-based; conditions: in vivo
[16] = Terminal half life in Sprague-Dawley rat at 1 mg/kg, iv by LC-MS/MS analysis; type: ADME, organism-based; conditions: in vivo, read-out: beta t1/2 (converted)
Estrogen receptor = molecular target: T3, Estrogen receptor (Homo sapiens, UniProt P03372)
T3 sequence (P03372 whole entry): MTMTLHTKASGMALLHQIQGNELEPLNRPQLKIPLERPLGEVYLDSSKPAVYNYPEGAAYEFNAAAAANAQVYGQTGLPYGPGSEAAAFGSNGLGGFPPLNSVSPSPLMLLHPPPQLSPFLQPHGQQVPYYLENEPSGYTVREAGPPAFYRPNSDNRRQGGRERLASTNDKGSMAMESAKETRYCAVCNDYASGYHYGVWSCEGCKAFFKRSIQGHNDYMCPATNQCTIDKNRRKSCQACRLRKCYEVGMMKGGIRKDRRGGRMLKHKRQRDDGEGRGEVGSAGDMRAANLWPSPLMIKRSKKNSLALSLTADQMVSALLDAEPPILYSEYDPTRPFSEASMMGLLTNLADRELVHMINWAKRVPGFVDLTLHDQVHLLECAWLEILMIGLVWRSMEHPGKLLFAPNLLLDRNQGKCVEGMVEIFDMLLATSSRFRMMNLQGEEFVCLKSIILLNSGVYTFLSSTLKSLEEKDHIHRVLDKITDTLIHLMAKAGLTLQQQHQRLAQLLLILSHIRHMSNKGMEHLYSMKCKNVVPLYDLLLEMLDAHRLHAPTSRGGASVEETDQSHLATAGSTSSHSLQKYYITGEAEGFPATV

in vivo [17] = conditions: Sprague-Dawley, rat, iv, 1 mg/kg; remark: listed apart in the source
[18] = molecular target: T4, Estrogen-related receptor gamma (Homo sapiens, UniProt P62508)
T4 sequence (P62508 whole entry): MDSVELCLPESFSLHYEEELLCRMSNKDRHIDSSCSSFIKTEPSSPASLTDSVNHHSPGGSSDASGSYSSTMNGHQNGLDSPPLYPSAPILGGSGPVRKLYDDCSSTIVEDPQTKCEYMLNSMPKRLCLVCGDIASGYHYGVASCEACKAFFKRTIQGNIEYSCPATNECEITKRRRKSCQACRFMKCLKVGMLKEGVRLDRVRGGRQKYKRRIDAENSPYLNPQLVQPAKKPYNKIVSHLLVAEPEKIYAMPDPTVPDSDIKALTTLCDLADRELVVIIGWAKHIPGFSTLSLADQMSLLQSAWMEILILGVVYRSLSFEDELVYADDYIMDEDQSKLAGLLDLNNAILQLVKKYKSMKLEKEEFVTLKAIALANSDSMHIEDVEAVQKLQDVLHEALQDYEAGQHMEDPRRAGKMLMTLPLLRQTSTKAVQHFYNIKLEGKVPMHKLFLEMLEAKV

[19] = molecular target: T4, Estrogen-related receptor gamma; remark: listed apart in the source
Description: Inverse agonist activity at CMX-gal4-fused ERRgamma (unknown origin) transfected in human AD293 cells co-expressing CMV-beta galactosidase assessed as effect on beta-galactosidase activity after 24 hrs by luciferase reporter gene assay

Row | Structure (SMILES) | inhibition at 0.25 h, 10 µM (CYP1A2) [%] | inhibition at 0.25 h, 10 µM (CYP2C9) [%] | inhibition at 0.25 h, 10 µM (CYP2C19) [%] | inhibition at 0.25 h, 10 µM (CYP2D6) [%] | inhibition at 0.25 h, 10 µM (CYP3A4) [%] | remaining at 0.5 h, 1 µM [1] [%] | remaining at 0.5 h, 1 µM [3] [%] | remaining at 0.5 h, 1 µM [4] [%] | Papp at 5 h, 10 µM [5] [×10⁻⁶ cm/s] | IC50 [6] [µM] | IC50 [7] [µM] | AUC [8] [µM·h] | bioavailability [9] [%] | clearance (in vivo [10]) [mL/min/kg] | Vd (in vivo [11]) [L/kg] | AUC(0-inf) [12] [µM·h] | AUC(0-inf) [13] [µM·h] | Cmax [14] [nM] | Tmax [15] [h] | half-life [16] [h] | also measured
1 | CC(C)N1CCN(c2ccc(/C(=C(/CCCO)c3ccccc3)c3ccc(O)cc3)cc2)CC1.Cl.Cl | 12 | 13.9 | 18.8 | 36.5 | 33.6 | 26.6 | 32.5 | 19.9 | 0.46 | > 10 | 18.7 | – | – | – | – | – | – | – | – | – | remaining at 0.5 h, 1 µM [2]: 49.7%
2 | CN(C)CCOc1ccc(/C(=C(/CCCO)c2ccccc2)c2ccc(O)cc2)cc1.Cl | – | – | – | – | – | – | – | – | – | – | – | 0.68 | 8.4 | 44 | 16.8 | – | – | – | – | – | –
3 | Cc1ccc(/C(=C(\CCCO)c2ccccc2)c2ccc(N3CCN(C(C)C)CC3)cc2)cc1.Cl.Cl | 10.2 | 26.6 | 30.3 | 31.1 | 47 | 54.2 | 40 | 19.7 | 2.09 | > 10 | > 30 | 1.02 | 17.6 | 58 | 9.8 | 0.64 | 1.41 | 160 | 4 | 3.1 | IC50 (Estrogen receptor): > 10 µM; AUC (in vivo [17]): 0.58 µM·h
4 | CCN1CCN(c2ccc(/C(=C(/CCCO)c3ccccc3)c3ccc(C)cc3)cc2)CC1.Cl.Cl | 0 | 13 | 26 | 13.4 | 22.4 | 67.9 | 62.8 | 54.9 | 4.47 | > 10 | – | 1.07 | 19.6 | 59 | 9.8 | 0.6 | 1.61 | 210 | 3 | 3.2 | remaining at 0.5 h, 1 µM [2]: 58%; IC50 [18]: 0.025 µM; IC50 (Estrogen receptor): > 10 µM; IC50 [19]: 0.018 µM; AUC (in vivo [17]): 0.55 µM·h
5 | Cc1ccc(/C(=C(\CCCO)c2ccccc2)c2ccc(N3CCN(C)CC3)cc2)cc1.Cl.Cl | 0 | 37.7 | 27.2 | 31.8 | 29.1 | 79.2 | 65.7 | 47.6 | 4.84 | > 10 | 18.9 | 0.45 | 18.3 | 139 | 30.3 | 0.29 | 0.66 | 80 | 2.8 | 2.5 | IC50 (Estrogen receptor): > 10 µM; AUC (in vivo [17]): 0.28 µM·h
